Our source for the IC50 values is patent publication US5231103A, “Quinolin-2-yl-methoxybenzylhydroxyureas” (Bayer Aktiengesellschaft, priority 1991, dated 1993).

For this experiment, the target named is T1, 5-LO (Homo sapiens, UniProt P09917).
T1 construct: release of leukotriene B4 (LTB4) in polymorphonuclear human leucocytes (PMN); endogenous in cells; host or cells: human polymorphonuclear leucocytes (PMN)
T1 sequence (P09917 1-674): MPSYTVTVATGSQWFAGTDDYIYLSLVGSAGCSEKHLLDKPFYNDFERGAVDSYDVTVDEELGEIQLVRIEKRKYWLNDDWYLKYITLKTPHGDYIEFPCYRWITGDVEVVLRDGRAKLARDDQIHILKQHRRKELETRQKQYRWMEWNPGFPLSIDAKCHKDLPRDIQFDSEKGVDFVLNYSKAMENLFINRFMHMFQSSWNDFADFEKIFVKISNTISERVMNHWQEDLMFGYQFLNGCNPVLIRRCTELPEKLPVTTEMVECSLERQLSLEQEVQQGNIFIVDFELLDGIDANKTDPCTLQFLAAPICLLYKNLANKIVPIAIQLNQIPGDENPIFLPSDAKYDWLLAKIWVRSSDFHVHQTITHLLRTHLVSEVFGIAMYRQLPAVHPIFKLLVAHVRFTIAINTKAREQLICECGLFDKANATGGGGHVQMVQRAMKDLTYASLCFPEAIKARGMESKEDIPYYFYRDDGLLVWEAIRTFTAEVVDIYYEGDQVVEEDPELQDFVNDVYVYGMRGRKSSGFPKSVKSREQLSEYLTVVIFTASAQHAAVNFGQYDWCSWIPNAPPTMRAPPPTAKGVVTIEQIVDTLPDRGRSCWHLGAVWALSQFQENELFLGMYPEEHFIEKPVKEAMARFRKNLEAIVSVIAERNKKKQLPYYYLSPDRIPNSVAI
Description: lipoxygenase inhibition: release of leukotriene B4 (LTB4) in polymorphonuclear human leucocytes (PMN) after Ca ionophore, by reverse phase HPLC. In kind it is cell-based. The following applies: LTB4 release in human PMN after addition of substance and Ca ionophore; RP-HPLC. The method, then:
As a measure of lipoxygenase inhibition, the release of leukotriene B4 (LTB4) in polymorphonuclear human leucocytes (PMN) after addition of substances and Ca ionophore was determined by means of reverse phase HPLC according to Borgeat, P. et al., Proc. Nat. Acad. Sci., 76, 2148-2152 (1979).

The compound `NC(=O)N(O)C(c1ccc(OCc2ccc3ccccc3n2)cc1)C1CCCCC1` (centres unmarked) [Example 1, N-[4-(Quinolin-2-yl-methoxy)phenyl-cyclohexyl]methyl-N-hydroxyurea] had a half-inhibitory concentration (IC50) of 250 nM. The value for `NC(=O)N(O)C(c1ccc(OCc2ccc3ccccc3n2)cc1)C1CCCC1` (centres unmarked) [Example 2, N-[4-(Quinolin-2-yl-methoxy)phenyl-cyclopentyl]methyl-N-hydroxyurea] was 1200 nM.

The term IC50 denotes the concentration needed to halve the response being measured.
